Measured values reported in ChEMBL document CHEMBL4257490, “Development of a peptide-based bifunctional chelator conjugated to a cytotoxic drug for the treatment of melanotic melanoma” (Medchemcomm, 2018).
Calls of active or inactive are those of the source. No cut-off for these calls is given here. Residues, ends and D or L forms follow the SMILES beside them. *: point of attachment. X1 = O=c1nc(N*)ccn1[C@@H]1O[C@H](CO)[C@@H](O)C1(F)F

Assays:
[1] = Drug uptake in mouse B16F10 cells using 5,6-carboxyfluorescein-labeled compound at 20 ug/ml after 4 hrs by DAPI staining-based fluorescence microscopic method; type: ADME, cell-based; settings: b16-f10, 4 h
B16-F10 [2] = assay: Ratio of drug uptake in mouse B16F10 cells at 20 ug/ml after 4 hrs by flow cytometric method to drug uptake in mouse B16F10 cells at 20 ug/ml after 30 mins by flow cytometric method; type: ADME, cell-based
[3] = Hemolytic activity in rat erythrocytes at 100 uM after 1 hr relative to control; type: ADME, cell-based, Erythrocyte; settings: read-out: Activity
[4] = Metabolic stability in rat serum assessed as parent compound remaining using 99mTc(CO)3-labeled compound after 24 hrs by TLC method; type: ADME, cell-free; settings: read-out: Stability
[5] = Drug degradation in histidine solution using 99mTc(CO)3-labeled compound after 24 hrs by TLC method; type: physicochemical; settings: read-out: Drug degradation
[6] = Drug uptake in mouse B16F10 cells using 99mTc(CO)3-labeled compound at 15 to 20 MBq/ml after 30 mins by gamma scintillation counting method relative to total added activity; type: ADME, cell-based; settings: b16-f10, 0.5 h
[7] = Drug uptake in mouse B16F10 cells using 99mTc(CO)3-labeled compound at 15 to 20 MBq/ml after 240 mins by gamma scintillation counting method relative to total added activity; type: ADME, cell-based; settings: b16-f10, 4 h
[8] = Drug uptake in mouse B16F10 cells using 99mTc(CO)3-labeled compound at 15 to 20 MBq/ml after 30 mins by gamma scintillation counting method; type: ADME, cell-based; settings: b16-f10, 0.5 h
[9] = Drug uptake in heart of Balb/c mouse allografted with mouse B16F10 cells using 99mTc(CO)3-labeled compound at 10 to 12 MBq/kg, iv measured at 2 hrs; type: ADME, organism-based; settings: in vivo
[10] = Drug uptake in blood of Balb/c mouse allografted with mouse B16F10 cells using 99mTc(CO)3-labeled compound at 10 to 12 MBq/kg, iv measured at 2 hrs; type: ADME, organism-based; settings: in vivo
[11] = Drug uptake in liver of Balb/c mouse allografted with mouse B16F10 cells using 99mTc(CO)3-labeled compound at 10 to 12 MBq/kg, iv measured at 2 hrs; type: ADME, organism-based; settings: in vivo
[12] = Drug uptake in muscle of Balb/c mouse allografted with mouse B16F10 cells using 99mTc(CO)3-labeled compound at 10 to 12 MBq/kg, iv measured at 2 hrs; type: ADME, organism-based, Muscle tissue; settings: in vivo
[13] = Drug uptake in kidney of Balb/c mouse allografted with mouse B16F10 cells using 99mTc(CO)3-labeled compound at 10 to 12 MBq/kg, iv measured at 2 hrs; type: ADME, organism-based; settings: in vivo
[14] = Drug uptake in stomach of Balb/c mouse allografted with mouse B16F10 cells using 99mTc(CO)3-labeled compound at 10 to 12 MBq/kg, iv measured at 2 hrs; type: ADME, organism-based; settings: in vivo
[15] = Drug uptake in urine of Balb/c mouse allografted with mouse B16F10 cells using 99mTc(CO)3-labeled compound at 10 to 12 MBq/kg, iv measured at 2 hrs; type: ADME, organism-based; settings: in vivo
[16] = Ratio of drug level in tumor to blood of Balb/c mouse allografted with mouse B16F10 cells using 99mTc(CO)3-labeled compound at 10 to 12 MBq/kg, iv measured at 2 hrs; type: ADME, organism-based, Tumor/tissue
[17] = Ratio of drug level in tumor to muscle of Balb/c mouse allografted with mouse B16F10 cells using 99mTc(CO)3-labeled compound at 10 to 12 MBq/kg, iv measured at 2 hrs; type: ADME, organism-based, Tumor/tissue; settings: in vivo
[18] = Drug uptake in lung of Balb/c mouse allografted with mouse B16F10 cells using 99mTc(CO)3-labeled compound at 10 to 12 MBq/kg, iv measured at 4 hrs; type: ADME, organism-based; settings: in vivo
[19] = Drug uptake in muscle of Balb/c mouse allografted with mouse B16F10 cells using 99mTc(CO)3-labeled compound at 10 to 12 MBq/kg, iv measured at 4 hrs; type: ADME, organism-based, Muscle tissue; settings: in vivo
[20] = Drug uptake in kidney of Balb/c mouse allografted with mouse B16F10 cells using 99mTc(CO)3-labeled compound at 10 to 12 MBq/kg, iv measured at 4 hrs; type: ADME, organism-based; settings: in vivo
[21] = Drug uptake in stomach of Balb/c mouse allografted with mouse B16F10 cells using 99mTc(CO)3-labeled compound at 10 to 12 MBq/kg, iv measured at 4 hrs; type: ADME, organism-based; settings: in vivo
[22] = Ratio of drug level in tumor to blood of Balb/c mouse allografted with mouse B16F10 cells using 99mTc(CO)3-labeled compound at 10 to 12 MBq/kg, iv measured at 4 hrs; type: ADME, organism-based, Tumor/tissue
[23] = Ratio of drug level in tumor to muscle of Balb/c mouse allografted with mouse B16F10 cells using 99mTc(CO)3-labeled compound at 10 to 12 MBq/kg, iv measured at 4 hrs; type: ADME, organism-based, Tumor/tissue; settings: in vivo
[24] = Drug uptake in tumor of Balb/c mouse allografted with mouse B16F10 cells using 99mTc(CO)3-labeled compound at 4 to 8 MBq, iv measured at 4 hrs by scintigraphic imaging method; type: ADME, organism-based, Neoplasm; settings: in vivo
B16-F10 [25] = assay: Cytotoxicity against mouse B16F10 cells assessed as decrease in cell viability after 72 hrs by MTT assay; type: functional, cell-based; settings: B16-F10, 72 h
[26] = Drug uptake in gastrointestinal tract of Balb/c mouse allografted with mouse B16F10 cells using 99mTc(CO)3-labeled compound at 4 to 8 MBq, iv measured at 4 hrs by scintigraphic imaging method; type: ADME, organism-based; settings: in vivo
B16-F10 [27] = assay: Induction of apoptosis in mouse B16F10 cells at IC50 after 72 hrs by annexin V-FITC/propidium iodide staining-based flow cytometric method relative to control; type: functional
B16-F10 [28] = assay: Induction of apoptosis in mouse B16F10 cells assessed as necrotic cells at IC50 after 72 hrs by annexin V-FITC/propidium iodide staining-based flow cytometric method relative to control; type: functional
B16-F10 [29] = assay: Induction of apoptosis in mouse B16F10 cells assessed as nuclear fragmentation at IC50 after 72 hrs by DAPI staining-based fluorescence microscopic method; type: functional, cell-based
B16-F10 [30] = assay: Antitumor activity against mouse B16F10 cells allografted in Balb/c mouse assessed as tumor growth inhibition at 25 mg/kg, iv administered thrice weekly for 21 days starting on day 10 post tumor implantation relative to control; type: functional; settings: read-out: TGI
Mus musculus = assay: Toxicity in mouse B16F10 cells allografted Balb/c mouse assessed as effect on body weight at 25 mg/kg, iv administered thrice weekly for 21 days starting on day 10 post tumor implantation (reference value: 30.52 +/- 2.9 g); type: organism-based; settings: in vivo, 504 h
B16-F10 [31] = assay: Antitumor activity against mouse B16F10 cells allografted in Balb/c mouse assessed as decrease in tumor development at 25 mg/kg, iv administered thrice weekly for 21 days starting on day 10 post tumor implantation by haematoxylin and eosin staining-based method; type: functional, organism-based
B16-F10 [32] = assay: Antitumor activity against mouse B16F10 cells allografted in Balb/c mouse assessed as decrease in formation of new blood vessels in tumor at 25 mg/kg, iv administered thrice weekly for 21 days starting on day 10 post tumor implantation by haematoxylin and eosin staining-based method; type: functional, organism-based
[33] = Drug uptake in mouse B16F10 cells using 99mTc(CO)3-labeled compound at 15 to 20 MBq/ml after 240 mins by gamma scintillation counting method; type: ADME, cell-based; settings: b16-f10, 4 h

Q: Which Drug uptake [1] does the source give for `NCCCC[C@H](NC(=O)CNC(=O)[C@H](Cc1cnc[nH]1)NC(=O)[C@H](CCCCN)NC(=O)[C@H](Cc1ccc(O)cc1)NC(=O)[C@@H](N)Cc1cnc[nH]1)C(=O)N[C@@H](CC(=O)Nc1ccn([C@@H]2O[C@H](CO)[C@@H](O)C2(F)F)c(=O)n1)C(N)=O` (H-HYKHGKD(X1)-NH2) here?
A: Its Drug uptake is “Active”.

Q: What about the Ratio (B16-F10 [2]) of the same molecule?
A: The Ratio was 4.4.

Q: And the hemolysis at 1 h, 100 µM [3]?
A: The hemolysis at 1 h, 100 µM was 7 to 9%.

Q: What about the remaining at 24 h [4] of the same molecule?
A: The remaining at 24 h was ≥ 92%.

Q: What about the degraded at 24 h [5] of the same molecule?
A: The degraded at 24 h was 5%.

Q: What about the Drug uptake [6] of the same molecule?
A: Its Drug uptake is 4.99%.

Q: What about the Drug uptake [7] of the same molecule?
A: The Drug uptake was 9.87%.

Q: What about the Drug uptake [8] of the same molecule?
A: Its Drug uptake is 42.34%.

Q: And the Drug uptake [9]?
A: The Drug uptake was 0.06 % ID/g.

Q: What about the Drug uptake [10] of the same molecule?
A: The Drug uptake was 1.79 %ID/ml.

Q: What about the Drug uptake [11] of the same molecule?
A: The Drug uptake was 17.65 % ID/g.

Q: And the Drug uptake [12]?
A: The Drug uptake was 0.17 % ID/g.

Q: What about the Drug uptake [13] of the same molecule?
A: The Drug uptake was 18.96 % ID/g.

Q: What about the Drug uptake [14] of the same molecule?
A: Its Drug uptake is 0.25 % ID/g.

Q: And the Drug uptake [15]?
A: Its Drug uptake is 41.21 %ID/ml.

Q: And the Kp at 2 h [16]?
A: Its Kp at 2 h is 0.95.

Q: And the Ratio [17]?
A: Its Ratio is 10.64.

Q: And the Drug uptake [18]?
A: Its Drug uptake is 0.25 % ID/g.

Q: What about the Drug uptake [19] of the same molecule?
A: Its Drug uptake is 0.15 % ID/g.

Q: What about the Drug uptake [20] of the same molecule?
A: Its Drug uptake is 16.25 % ID/g.

Q: What about the Drug uptake [21] of the same molecule?
A: The Drug uptake was 0.17 % ID/g.

Q: What about the Kp at 4 h [22] of the same molecule?
A: The Kp at 4 h was 1.77.

Q: And the Ratio [23]?
A: Its Ratio is 18.73.

Q: What about the Drug uptake [24] of the same molecule?
A: Its Drug uptake is “Active”.

Q: What about the IC50 (B16-F10 [25]) of the same molecule?
A: Its IC50 is 120 nM.

Q: What about the Drug uptake [26] of the same molecule?
A: The Drug uptake was “Active”.

Q: What about the Activity (B16-F10 [27]) of the same molecule?
A: The Activity was 61%.

Q: What about the Activity (B16-F10 [28]) of the same molecule?
A: The Activity was 12 - 14%.

Q: What about the Activity (B16-F10 [29]) of the same molecule?
A: Its Activity is “Active”.

Q: And the inhibition in vivo at 25 mg/kg (B16-F10 [30])?
A: Its inhibition in vivo at 25 mg/kg is 62%.

Q: And the Activity (Mus musculus)?
A: Its Activity is 25.15 g.

Q: What about the Activity (B16-F10 [31]) of the same molecule?
A: The Activity was “Active”.

Q: And the Activity (B16-F10 [32])?
A: Its Activity is “Active”.

Q: What about the Drug uptake [33] of the same molecule?
A: The Drug uptake was 80%.
